PMC7002129, “The structure of Photosystem I acclimated to far-red light illuminates an ecologically important acclimation process in photosynthesis” (Science Advances, 2020)
Blank lines part the entries; values can stand above or below the compound they belong to.

What was measured:
[1] = target: T1, FRL-PSI (far-red light-acclimated Photosystem I trimer) (Fischerella thermalis, UniProt G6FME9+G6FMF0); experiment: cryo-EM structure ([…] Å); reversed-phase HPLC of extracted pigments; assay type: binding; conditions: presence shown by HPLC
T1 construct: gene psaA; native trimer from FRL-grown cells, DM-solubilised, sucrose gradients; 36 subunits (12 per monomer), ~1 MDa; with Photosystem I reaction center subunit II; Photosystem I reaction center subunit IV; Photosystem I reaction center subunit VIII; Photosystem I reaction center subunit XII; Photosystem I 4.8K protein

[2] = target: T1, FRL-PSI (far-red light-acclimated Photosystem I trimer); experiment: reversed-phase HPLC of extracted pigments; assay type: binding; conditions: native complex; site not assigned (modelled as beta-carotene)
[3] = target: Far-red light-acclimated Photosystem I (FRL-PSI) monomer from Fischerella thermalis PCC 7521 (Fischerella thermalis PCC 7521) (UniProt G6FW50); experiment: cryo-EM structure; single-particle cryo-EM of trimeric FRL-PSI isolated from FRL-grown F. thermalis; plunge-frozen in 300 mM tricine pH 8.0, 50 mM NaCl; 178,666 particles, C3 symmetry, global resolution 3.19 Å

Compound: C=Cc1c(C=O)c2[n]3c1=CC1=NC(=Cc4c(C)c5c([n]4[Mg]3)C(=C3N=C(C=2)C(C)C3CCC(=O)OCC=C(C)CCCC(C)CCCC(C)CCCC(C)C)C(C(=O)OC)C5=O)C(CC)=C1C (stereo not shown) [Chl f]
- cryo-EM structure (3.19 Å); reversed-phase HPLC of extracted pigments ([1]; sites A20, A21, B30, B37 modelled as Chl f, assigned indirectly from environment): sites of Chl A20, Chl A21, Chl B30, and Chl B37, accounting for four

Compound: CC1=C(/C=C/C(C)=C/C=C/C(C)=C/C=C/C=C(C)/C=C/C=C(C)/C=C/C2=C(C)C(=O)CCC2(C)C)C(C)(C)CCC1 [echinenone]
- reversed-phase HPLC of extracted pigments [2]: both complexes contain a mixture of β-carotene and echinenone

Compound: CC1=C(/C=C/C(C)=C/C=C/C(C)=C/C=C/C=C(C)/C=C/C=C(C)/C=C/C2=C(C)CCCC2(C)C)C(C)(C)CCC1 [β-carotene]
- cryo-EM structure (3.19 Å); reversed-phase HPLC of extracted pigments ([1]; not distinguishable from echinenone in the map): all carotenoids are modeled as β-carotene (BCR)

- stoichiometry N [3]: 3
Compound: Far-red light-acclimated Photosystem I (FRL-PSI) monomer from Fischerella thermalis PCC 7521 (from UniProt G6FW50 1-81; G6FQU3 1-72) (complex)
